Laboratory results: PMC9965520, “An Efficient Peptidomics Screening for Exogenous Substrates and Inhibitory Peptides of the Dipeptidase ACE from Milk Hydrolysate” (Pharmaceutics, 2023)
No end group written: not given here.

Biological target: T1, ACE (Oryctolagus cuniculus, UniProt P12822)
T1 sequence (P12822 34-1310): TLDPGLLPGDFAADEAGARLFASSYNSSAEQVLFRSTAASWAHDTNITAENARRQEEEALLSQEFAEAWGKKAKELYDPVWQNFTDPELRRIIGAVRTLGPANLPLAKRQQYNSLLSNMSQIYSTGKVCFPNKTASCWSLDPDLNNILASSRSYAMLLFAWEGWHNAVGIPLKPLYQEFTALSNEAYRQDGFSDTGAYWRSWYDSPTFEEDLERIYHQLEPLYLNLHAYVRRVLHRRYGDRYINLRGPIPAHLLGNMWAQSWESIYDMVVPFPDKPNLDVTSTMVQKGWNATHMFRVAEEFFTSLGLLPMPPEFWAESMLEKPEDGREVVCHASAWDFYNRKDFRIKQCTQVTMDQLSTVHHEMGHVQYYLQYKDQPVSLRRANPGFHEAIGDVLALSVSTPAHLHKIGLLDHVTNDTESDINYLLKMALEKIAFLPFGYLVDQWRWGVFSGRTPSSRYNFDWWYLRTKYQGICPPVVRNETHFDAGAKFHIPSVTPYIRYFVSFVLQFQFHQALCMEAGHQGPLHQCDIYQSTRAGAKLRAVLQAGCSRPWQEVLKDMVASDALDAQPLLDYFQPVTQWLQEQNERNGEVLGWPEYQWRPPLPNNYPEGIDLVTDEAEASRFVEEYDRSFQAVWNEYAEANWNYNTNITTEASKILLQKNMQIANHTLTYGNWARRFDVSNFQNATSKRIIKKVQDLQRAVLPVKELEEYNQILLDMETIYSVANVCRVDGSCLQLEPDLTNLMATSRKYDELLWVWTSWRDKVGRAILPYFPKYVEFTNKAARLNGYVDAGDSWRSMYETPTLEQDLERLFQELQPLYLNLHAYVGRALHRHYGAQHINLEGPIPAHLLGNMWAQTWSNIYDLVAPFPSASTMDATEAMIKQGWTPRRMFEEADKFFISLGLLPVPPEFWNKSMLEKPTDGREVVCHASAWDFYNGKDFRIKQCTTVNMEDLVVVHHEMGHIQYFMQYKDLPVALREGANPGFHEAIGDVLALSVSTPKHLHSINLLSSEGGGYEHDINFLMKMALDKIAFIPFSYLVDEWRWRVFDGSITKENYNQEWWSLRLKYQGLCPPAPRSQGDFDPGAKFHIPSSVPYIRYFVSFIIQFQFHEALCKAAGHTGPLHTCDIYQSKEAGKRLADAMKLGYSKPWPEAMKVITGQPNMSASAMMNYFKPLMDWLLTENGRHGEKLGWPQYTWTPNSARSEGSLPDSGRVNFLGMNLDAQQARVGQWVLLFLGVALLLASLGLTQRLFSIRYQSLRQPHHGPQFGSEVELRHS
Test: ACE pre-incubation of milk hydrolysate peptide libraries, stable-isotope dimethyl labeling and LC-MS/MS (D/H ratio)
Format: in vitro ADME, rabbit
Design: ACE (EC 3.4.15.1, 1 unit) from rabbit lungs; purchased Sigma Chemical Co. (St. Louis, MO, USA); host or cells: rabbit lungs (tissue-derived enzyme)
Settings: milk hydrolysate peptide library (<3 kDa); ACE-treated (0.05 mU/μL ACE, borate buffer, 37 °C, 3 h: 1.5 h static + 1.5 h 200 rpm; D-labeled) versus untreated (H-labeled) peptide; intensity ratio in LC-MS; <1 = hydrolysed by ACE
Protocol: The peptide libraries (200 μg) dissolved in borate buffer were equally divided into two parts, one was without any treatment (control group); the other part (experimental group) was incubated with 0.05 mU/μL ACE at 37℃ for 1.5 h statically, followed by gentle shaking at 200 rpm for another 1.5 h, and then the ACE reaction was quenched using 60 μL of 1N HCl. After lyophilization, both samples were redissolved in 100 μL of 0.1M sodium acetate and modified using stable-isotope dimethyl labeling according to the previous study with slight modifications. Briefly, the control group (without ACE incubation) had 4 μL of formaldehyde (37% solution in H2O) and 1 M NaBH3CN (10 μL) added to it; the experimental group had 20% formaldehyde-d2 (8 μL) and 1M NaBH3CN (10 μL) added to it. After 1h, 5 μL of ammonia (28% solution in H2O) were added individually to both groups to stop the reaction. The experimental group and the control group were combined and desalted using the PepClean™C18 spin column. The resulting peptide mixture was lyophilized and kept at −20 °C prior to LC-MS/MS analysis. Formaldehyde is known to the state of California to cause cancer; special caution was taken including the use of surgical gloves and a fume hood when formaldehyde was handled.
The combined mixture re-dissolved in 5% ACN containing 0.1% formic acid was separated using an Ultimate 3000 RSLC system (Dionex, Sunnyvale, CA, USA) coupled with a C18 column (Acclaim PepMap RSLC, 75 μm × 150 mm, Thermo Scientific, Waltham, Middlesex, MA, USA) and analyzed with a Thermo Q-ExactiveTM mass spectrometer (Thermo Scientific Inc., Waltham, Middlesex, MA, USA). The elution solution was composed of mobile phase A (0.1% formic acid in water) and B (0.1% formic acid in 95% acetonitrile). The elution gradient was arranged as follows: (i) isocratic elution using 1% B in the first 5.5 min for sample loading, (ii) linear gradient from 1% to 60% B in the next 39.5 min, (iii) linear gradient from 60% to 80% B in the following 10 min, and finally (iv) isocratic elution using 1% solution B for 10 min. The flow rate applied in the LC separation was maintained at 250 µL/min. The separated peptides were analyzed and quantified using Q-ExactiveTM mass spectrometry which was operated in the data-dependent mode and switched automatically between MS and HCD-MS2. A full MS scan was carried out in a 100 and 1500 m/z range, and the 14 ions of the highest intensities were selected for MS/MS scans. The RAW data were converted to the MGF file format followed by database-assisted sequencing with PEAKS DB using PEAKS Studio X (Bioinformatics Solutions Inc., Waterloo, ON, Canada). The parameters used for peptide identification were listed as follows: (1) Database: UniProt_SwissProt (Bos taurus); (2) Enzyme: pepsin, trypsin, α-chymotrypsin, or GI (the combination of these three proteases); (3) Type of enzyme: Unspecific; (4) Instrument: Orbitrap; (5) Parent mass error tolerance: 20 ppm; (6) Fragment mass error tolerance: 0.6 Da; (7) Variable modifications: Dimethyl (K), Dimethyl (N-term), Dimethyl:2H(4) (K), and Dimethyl:2H(4) (N-term) were used for identification and quantitative analysis. The sequence identified through the database was validated by manually matching with the MS/MS spectrum in the raw data. In addition to MS/MS analysis coupled with PEAKS studio, the ACE’s substrate candidates were further confirmed using the synthetic peptides with corresponding sequences by comparison with their LC retention times, m/z values, and MS/MS spectra. The relative abundances of hydrogen (H) and deuterium (D) labeled peptides were quantified based on the peak areas in their corresponding selective ion chromatograms (SIC). The D/H ratio of identified peptide with the same sequence was further examined by their relative signal intensities in MS spectrum. Theoretically, the D/H ratio of the isobaric pair should stay at 1 if the peptide will not react with ACE. […]

Substance	D/H Ratio
AYFYPELFR [AR-9]	0.19
FFVAPFPEVF [FF-10]	0.87
HLPLPLLQSW [HW-10]	0.12
LHLPLPLL [LL-8]	0.74
LVYPFPGPIHNSL [LL-13]	0.26
YVPLGTQ [YQ-7]	0.33
